Results as given in PubChem BioAssay AID1188 (EPA DSSTox, 2008).
The source made the active and inactive calls.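 The calls were made as follows: active = a concentration killing half the fathead minnows in the acute test was determined; inconclusive = some fish died but not half at top dose; inactive = no fish died even at top dose.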

tested on: Fathead minnow (Pimephales promelas) acute toxicity, lethality; experiment: DSSTox (EPAFHM) EPA Fathead Minnow Acute Toxicity
Summary of the method: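 Activity score is an integer 1–100 scaling of log10(1/LC50 in mmol) between dataset minimum and maximum, highest potency = 100. Underlying LC50 values (mg) come from the U.S. EPA MED database.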

Row | SMILES | Potency | outcome
1 | O=[N+]([O-])c1ccc(O)c([N+](=O)[O-])c1 | 59.2 µM | 
2 | CCc1c(Br)c(Br)c(Br)c(Br)c1Br |  | inactive; moa not determined either due to lack of toxicity at saturation or late test res
3 | CC(=O)CCC=C(C)C | 679 µM | 
4 | CCC(C)O (configuration not stated) | 49500 µM | 
5 | CC1CNCCN1 (configuration not stated) | 22400 µM | 
6 | C=CCCCCCCC=C | 2.1 µM | 
7 | CCOC(C)=O | 2610 µM | 
8 | Cc1cccc(Cl)n1 | 1820 µM | 
9 | CC1(C)CC(=O)CC(=O)C1 | 82000 µM | 
10 | Cc1c(Cl)cccc1NC=O | 275 µM | 
11 | CCOC(=O)c1ccccc1C(=O)OCC | 143 µM | 
12 | CC#CCO | 144 µM | 
13 | CCCCCCCCOC(=O)c1cccc(C(=O)OCCCCCCCC)c1 |  | inactive; moa not determined either due to lack of toxicity at saturation or late test res
14 | C=CC(O)CCC (configuration not stated) | 304 µM | 
15 | CCCCCCCCCCCCCC=O |  | inactive; moa not determined either due to lack of toxicity at saturation or late test res
16 | CC(C)O | 144000 µM | 
17 | CCc1ccc(O)cc1 | 85.1 µM | 
18 | O=C(O)c1ccccc1 | 3360 µM | 
19 | Cc1ccc(OP(=O)(Oc2ccc(C)c(C)c2)Oc2ccc(C)c(C)c2)cc1C |  | inactive; moa not determined either due to lack of toxicity at saturation or late test res
20 | CCCCCc1ccccc1 | 11.5 µM | 
21 | Cc1ccc(Cl)c(Cl)c1 | 18.1 µM | 
22 | CCCCCOCCCCC | 19.8 µM | 
23 | O=Cc1ccccc1 | 93 µM | 
24 | O=[N+]([O-])c1ccc(Oc2ccc(Br)cc2)c([N+](=O)[O-])c1 |  | inactive; moa not determined either due to lack of toxicity at saturation or late test res

Row | SMILES | Potency | outcome
25 | O=Cc1cccc(Oc2ccc(Cl)c(Cl)c2)c1 | 1.12 µM | 
26 | COc1cc(Cl)c(Cl)cc1O | 23.2 µM | 
27 | CC(=O)CC(C)=O | 1350 µM | 
28 | N#Cc1cc(Cl)c(O)c(Cl)c1 | 129 µM | 
29 | CCCCCCCCCO | 39.5 µM | 
30 | Nc1ccccc1C(=O)c1ccc(Cl)cc1 | 9.15 µM | 
31 | CCCCCCCCCC(C)=O | 8.81 µM | 
32 | OCC(Br)CBr (configuration not stated) | 326 µM | 
33 | c1ccc(N(c2ccccc2)c2ccccc2)cc1 |  | inactive; moa not determined either due to lack of toxicity at saturation or late test res
34 | CCC[CH2][Sn]([CH2]CCC)([CH2]CCC)[CH2]CCC | 0.13 µM | 
35 | c1ccc2c(c1)oc1ccccc12 | 8.92 µM | 
36 | CCCCCCN | 559 µM | 
37 | Cl[C@@H]1CCCC[C@H]1Cl | 120 µM | 
38 | COc1c(O)c(Br)cc(C=O)c1[N+](=O)[O-] | 266 µM | 
39 | CCN(CC)c1ccccc1 | 110 µM | 
40 | Cc1cccc(OP(=O)(Oc2cccc(C)c2C)Oc2cccc(C)c2C)c1C |  | inactive; moa not determined either due to lack of toxicity at saturation or late test res
41 | CC(C)(O)CCc1ccccc1 | 404 µM | 
42 | CNC(=O)Oc1cccc2ccccc12 | 43.5 µM | 
43 | c1ccoc1 | 896 µM | 
44 | CC(C)c1ccc(C=O)cc1 | 44.7 µM | 
45 | NC(=O)c1ccccc1N | 2900 µM | 
46 | O=c1cc[nH]c(=O)[nH]1 |  | inactive; moa not determined either due to lack of toxicity at saturation or late test res
47 | CCN(CC)c1ccc(C=O)cc1 | 135 µM | 
